# Measured values from patent USRE39021E1, “Hydantoin-enhanced halogen efficacy in pulp and paper applications” (Lonza Inc., priority 1994, dated 2006).
# How the values were obtained:
# [1] = system: P. Aeruginosa and E. Aerogenes; test: Example 1: pulp slurry bactericidal efficacy (modified ASTM E 600-91), biocide added 10 minutes prior to inoculation; type: cell-based; settings: for Final Bacteria: inoculum 2×10^6 cfu/ml, 3 hours after inoculation
# Description: (§1) The addition of 5,5-dimethylhydantoin (DMH) to sodium hypochlorite solutions enhances the biocidal activity of sodium hypochlorite. The conditions of this experiment were a modification of ASTM E 600-91. Two biocide solutions were evaluated: NaOCl and NaOCl mixed with DMH in a 0.25:1 molar ratio. The NaOCl and the DMH were mixed prior to pulp introduction. The biocides were introduced to the pulp slurry 10 minutes prior to inoculation with 2×10^6 cfu/ml P. Aeruginosa and E. Aerogenes. The pulp slurry consisted of 1.3% ground aspen wood pulp and 200 ppm rosin adjusted to pH=5.0-5.5 with aluminum sulfate. Bacteria populations were measured 3 hours after pulp slurry inoculation. Final total halogen concentrations were measured at the time of bacterial population plating by sample centrifuging followed by standard DPD analyses. Biocides were neutralized with sodium thiosulfate prior to plating.
# [2] = system: P. Aeruginosa and E. Aerogenes; test: Example 2: bactericidal efficacy of NaOCl added to DMH-treated pulp slurry; type: cell-based; settings: for Final Bacteria: NaOCl added to pulp slurry (DMH-treated for 1:1 system)
# Description: as §1
# (§2) Prereaction of DMH with NaOCl as described in Example 1 was not required. The conditions of this experiment were in other respects the same as Example 1. The molar ratio in the pulp slurry was 1:1 NaOCl to DMH.
# [3] = system: P. Aeruginosa and E. Aerogenes; test: Example 3: bactericidal efficacy in preinoculated pulp slurry samples; type: cell-based; settings: for Final Bacteria: pulp inoculated 5 minutes prior to biocide
# Description: as §1
# (§3) The conditions were the same as Example 1 except that the pulp was inoculated with bacteria 5 minutes prior to biocide introduction as opposed to 10 minutes after. Also the NaOCl to DMH mole ratio was increased from 0.25:1 to 1:1.
# [4] = system: P. Aeruginosa and E. Aerogenes; test: Example 5: pulp slurry bactericidal efficacy of NaOCl with N-hydrogen compounds (1:1); type: cell-based; settings: for log reduction of bacteria: 5 ppm halogen; for log reduction of bacteria / efficacy enhancement over sodium hypochlorite alone: Example 5; for efficacy enhancement over sodium hypochlorite alone / Final Bacteria: NaOCl to N-hydrogen compound 1:1 molar
# Description: as §1
# (§4) The conditions were the same as those of Example 1. The molar ratio of the NaOCl to N-hydrogen compound was 1:1.
# [5] = Example 5: final total halogen in pulp slurry with N-hydrogen compounds; type: physicochemical; settings: for % Residual Halogen / Total Halogen Final: NaOCl to N-hydrogen compound 1:1 molar
# Description: as §1, §4
# bacteria = settings: residual chlorine concentrations of 1.6 ppm as Cl2; U.S. Pat. No. 3,328,294; cited from earlier work
# [6] = Example 1: final total halogen in pulp slurry (DPD analyses); type: physicochemical; settings: 3 hours after inoculation; for Total Halogen Final: 1.3% aspen pulp slurry pH 5.0-5.5; for % Residual Halogen: pulp slurry pH 5.0-5.5
# Description: as §1
# [7] = Example 2: final total halogen in DMH-treated pulp slurry; type: physicochemical; settings: NaOCl added to pulp slurry (DMH-treated for 1:1 system)
# Description: as §1, §2
# [8] = Example 3: final total halogen in preinoculated pulp slurry; type: physicochemical; settings: pulp inoculated 5 minutes prior to biocide
# Description: as §1, §3
# [9] = Example 4: halogen consumption in non-inoculated pulp slurry vs NaOCl:DMH molar ratio; type: physicochemical; settings: initial total halogen 25.6 ppm as Cl2; pulp slurry not inoculated
# Description: as §1, §2
# The experimental conditions were the same as those of Example 2, except that the pulp slurry was not inoculated with bacteria.
# [10] = system: P. Aeruginosa and E. Aerogenes; test: Example 7: pulp slurry bactericidal efficacy of N-halohydantoin compound; type: cell-based; settings: conditions of Example 1
# Description: as §1
# (§5) Specifically, Dantochlor®, a commercial halogenated hydantoin containing predominantly dichlorodimethylhydantoin and dichloroethylmethylhydantoin was used. The conditions were the same as those of Example 1.
# [11] = Example 7: final total halogen in pulp slurry; type: physicochemical; settings: conditions of Example 1
# Description: as §1, §5
# [12] = initial total halogen 1.0 ppm as Cl2
# [13] = initial total halogen 3.0 ppm as Cl2
# [14] = initial total halogen 5.0 ppm as Cl2
# [15] = initial total halogen 7.5 ppm as Cl2
# [16] = initial total halogen 10 ppm as Cl2
# [17] = initial total halogen 3 ppm as Cl2
# [18] = initial total halogen 5 ppm as Cl2
# [19] = initial total halogen 15 ppm as Cl2
# [20] = initial total halogen 0.8 ppm as Cl2
# [21] = initial total halogen 3.4 ppm as Cl2
# [22] = initial total halogen 16.3 ppm as Cl2
smiles,measurement,setting,value
"CC1(C)NC(=O)NC1=O [DMH, 5,5-dimethylhydantoin]",increase in efficacy of NaOCl in the presence of DMH,"[1]; 1 ppm halogen with DMH equivalent to 5 ppm halogen alone, Example 1",fivefold
same,increase in efficacy of NaOCl in the presence of DMH,"[2]; 3 ppm with DMH vs 5 ppm in its absence, Example 2",twofold
same,log reduction in bacteria concentration,"[2]; initial halogen concentration 3 ppm, in the presence of DMH, Example 2",2 log
same,log reduction of bacteria,"[3]; dosage 0.8 ppm halogen, in the presence of DMH, preinoculated samples, Example 3",3 log
"CCC1(C)NC(=O)NC1=O (stereo not drawn) [MEH, 5-ethyl-5-methylhydantoin]",log reduction of bacteria,[4],3 log
same,efficacy enhancement over sodium hypochlorite alone,[4],dramatically increased NaOCl efficacy
same,mitigation of halogen decomposition,"[5]; compared with cyanuric acid, Example 5",greatest mitigation of halogen decomposition
O=S(=O)(O)NCl [N-chlorosulfamate],bacterial concentrations achieved,bacteria,10^3 cfu/ml
"[Na+].[O-]Cl [NaOCl, sodium hypochlorite]",Final Bacteria,[1]; [12],10^5 cfu/ml
same,Final Bacteria,[1]; [13],10^4 cfu/ml
same,Final Bacteria,[1]; [14],≦10^3 cfu/ml
same,Final Bacteria,[1]; [15],≦10^3 cfu/ml
same,Final Bacteria,[1]; [16],≦10^3 cfu/ml
same,Total Halogen Final,[6]; [12],0.00 ppm as Cl2
same,% Residual Halogen,[6]; [12],0%
same,Total Halogen Final,[6]; [13],0.00 ppm as Cl2
same,% Residual Halogen,[6]; [13],0%
same,Total Halogen Final,[6]; [14],0.00 ppm as Cl2
same,% Residual Halogen,[6]; [14],0%
same,Total Halogen Final,[6]; [15],0.04 ppm as Cl2
same,% Residual Halogen,[6]; [15],0.5%
same,Total Halogen Final,[6]; [16],0.08 ppm as Cl2
same,% Residual Halogen,[6]; [16],0.8%
same,Final Bacteria,[2]; [17],10^5 cfu/ml
same,Final Bacteria,[2]; [18],10^4 cfu/ml
same,Final Bacteria,[2]; [15],<10^3 cfu/ml
same,Final Bacteria,[2]; [16],<10^3 cfu/ml
same,Final Bacteria,[2]; [19],<10^3 cfu/ml
same,% Residual Halogen,[7]; [17],0.0%
same,Total Halogen Final,[7]; [17],0.00 ppm as Cl2
same,% Residual Halogen,[7]; [18],0.4%
same,Total Halogen Final,[7]; [18],0.02 ppm as Cl2
same,% Residual Halogen,[7]; [15],0.5%
same,Total Halogen Final,[7]; [15],0.06 ppm as Cl2
same,% Residual Halogen,[7]; [16],0.4%
same,Total Halogen Final,[7]; [16],0.04 ppm as Cl2
same,% Residual Halogen,[7]; [19],0.7%
same,Total Halogen Final,[7]; [19],0.11 ppm as Cl2
same,Final Bacteria,[3]; [20],10^4 cfu/ml
same,Final Bacteria,[3]; [21],<10^3 cfu/ml
same,Final Bacteria,[3]; [22],<10^3 cfu/ml
same,% Residual Halogen,[8]; [20],1.3%
same,Total Halogen Final,[8]; [20],0.01 ppm as Cl2
same,% Residual Halogen,[8]; [21],1.0%
same,Total Halogen Final,[8]; [21],0.03 ppm as Cl2
same,% Residual Halogen,[8]; [22],2.1%
same,Total Halogen Final,[8]; [22],0.34 ppm as Cl2
same,% Residual Halogen,[9],0.4%
same,Total Halogen Final,[9],0.11 ppm as Cl2
same,log reduction of bacteria,[4],1 log
same,Final Bacteria,[4]; [12],10^6 cfu/ml
same,Final Bacteria,[4]; [13],10^5 cfu/ml
same,Final Bacteria,[4]; [14],10^5 cfu/ml
same,% Residual Halogen,[5]; [12],0.0%
same,Total Halogen Final,[5]; [12],0.00 ppm as Cl2
same,% Residual Halogen,[5]; [13],0.7%
same,Total Halogen Final,[5]; [13],0.02 ppm as Cl2
same,% Residual Halogen,[5]; [14],0.6%
same,Total Halogen Final,[5]; [14],0.03 ppm as Cl2
same,Final Bacteria,[10]; [14],≦10^3 cfu/ml
same,Final Bacteria,[10]; [15],≦10^3 cfu/ml
same,% Residual Halogen,[11]; [14],0.4%
same,Total Halogen Final,[11]; [14],0.02 ppm as Cl2
same,% Residual Halogen,[11]; [15],1%
same,Total Halogen Final,[11]; [15],0.05 ppm as Cl2
"NS(=O)(=O)O [Sulfamic acid, sulfamic acid]",efficacy enhancement over sodium hypochlorite alone,[4],no efficacy enhancement
